Test results as given in PMC10634346 (Cancer Research Communications, 2023).

Assays:
[1] = system: SU-DHL-4 and SU-DHL-10 cell lines; test: RNA-seq differential gene expression in DLBCL cell lines; type: cell-based, human
Protocol: Evaluation of the pharmacodynamic extent and duration of CDK9 inhibition were performed in vitro using the human DLBCL cell lines SU-DHL-4 and SU-DHL-10, harboring MYC amplification and MYC overexpression with P57T mutation, respectively. Cells were seeded 18 hours prior to treatment for 4 hours with one of three CDK9 inhibitors, enitociclib (0.25 and1 µmol/L), atuveciclib (1 µmol/L) or KB-0742 (1 µmol/L), cells were washed, and incubation continued until 48 hours posttreatment. Samples were collected before treatment (−4), immediately after treatment (0), and at 1, 2, 4, 8, 12, 16, 24, and 48 hours after washout for RNA sequencing (RNA-seq), qPCR, and Western blotting analyses. Total RNA was extracted from blood of patients and cell lines using RNeasy Plus Mini Kit (QIAGEN, #74136) and cDNA prepared with the Maxima First Strand cDNA Synthesis Kit for RT-PCR (Thermo Fisher Scientific, K1642) according to manufacturer's instructions. The integrity of purified total RNA was evaluated using an Agilent 2100 Bioanalyzer system and RNA 6000 Nano Kit (Agilent, #5067-1511). Differential gene expression analysis was performed (Fios Genomics) from RNA-seq data (Discovery Life Sciences). MYC and MCL1 mRNA levels were measured by qPCR in vitro and in vivo, using a Taqman qPCR system (Thermo Fisher Scientific), TaqMan Fast Universal PCR Master Mix (2X) no AmpErase (#4352042) and TaqMan probes for MYC (Hs00153408_m1) and MCL1 (Hs03043899_m1). RNA-seq data were analyzed using DESeq2 ([35]). RNA-seq data generated from the analysis of two cell lines treated with the three CDK9 inhibitors was analyzed to investigate the differences in gene expression levels between various posttreatment timepoints and the pretreatment samples. Quality control assessment and exploratory data analysis by principal component analysis (PCA) were done on raw counts and on normalized count data. Normalization of RNA-seq count data was done using trimmed mean of M-values normalization and transformed with voom, resulting in log2 counts per million with associated precision weights. […] Significance values (Padj) were adjusted for multiple testing, by controlling the FDR using the Benjamini–Hochberg procedure. […] RNA-seq data generated from blood samples taken from patients before and after their first dose (C1D1) or after multiple doses, before and after their third dose (C1D15) were analyzed and normalized using the same pipeline as cell lines for comparisons.

[2] = system: MCL1 mRNA in SU-DHL-10 tumors; test: Pharmacodynamics in SU-DHL-10 xenograft tumors, MCL1 mRNA qPCR; type: in vivo, C.B-17 SCID mice; details: single dose; depletion sustained for 8 hours postdose at the two higher dose levels
Protocol: Total RNA was extracted from blood of patients and cell lines using RNeasy Plus Mini Kit (QIAGEN, #74136) and cDNA prepared with the Maxima First Strand cDNA Synthesis Kit for RT-PCR (Thermo Fisher Scientific, K1642) according to manufacturer's instructions. The integrity of purified total RNA was evaluated using an Agilent 2100 Bioanalyzer system and RNA 6000 Nano Kit (Agilent, #5067-1511). Differential gene expression analysis was performed (Fios Genomics) from RNA-seq data (Discovery Life Sciences). MYC and MCL1 mRNA levels were measured by qPCR in vitro and in vivo, using a Taqman qPCR system (Thermo Fisher Scientific), TaqMan Fast Universal PCR Master Mix (2X) no AmpErase (#4352042) and TaqMan probes for MYC (Hs00153408_m1) and MCL1 (Hs03043899_m1). RNA-seq data were analyzed using DESeq2 ([35]).
A total of 10 × 10^6 SU-DHL-10 cells were inoculated subcutaneously into 6–8 weeks old female C.B-17 SCID mice (Iffa Credo, Brussels). The mice were randomized to treatment groups at a tumor volume of 63–104 mm^3 and treated (intravenously, once weekly) with 10 mg/kg enitociclib (60% PEG400, 10% ethanol, water), 15 mg/kg enitociclib (30% PEG400, 10% ethanol, water), or corresponding vehicle treatments. Mice were around 10–12 weeks of age at the start of study. All animal experiments were performed under the national animal welfare laws of Germany and approved by the local authorities.

[3] = system: Myc and Mcl-1 protein in SU-DHL-4 cells; test: In vitro washout, Myc and Mcl-1 protein Western blot, SU-DHL-4; type: cell-based, human; details: 0.25 µmol/L enitociclib, atuveciclib (1 µmol/L)
Protocol: (§1) Evaluation of the pharmacodynamic extent and duration of CDK9 inhibition were performed in vitro using the human DLBCL cell lines SU-DHL-4 and SU-DHL-10, harboring MYC amplification and MYC overexpression with P57T mutation, respectively. Cells were seeded 18 hours prior to treatment for 4 hours with one of three CDK9 inhibitors, enitociclib (0.25 and1 µmol/L), atuveciclib (1 µmol/L) or KB-0742 (1 µmol/L), cells were washed, and incubation continued until 48 hours posttreatment. Samples were collected before treatment (−4), immediately after treatment (0), and at 1, 2, 4, 8, 12, 16, 24, and 48 hours after washout for RNA sequencing (RNA-seq), qPCR, and Western blotting analyses.
The levels of p-Ser2, p-Ser5 and total RNA polymerase II, Myc, Mcl-1, cleaved PARP (cPARP), and cleaved Caspase 3 were assessed by Western blotting and quantified near-infrared detection and background corrected quantification of fluorescence intensity on an Odyssey Imaging System with IRDye secondary antibodies (LI-COR Biosciences). For quantification, the protein levels were normalized to GAPDH or HSP90, expressed as a ratio to DMSO or vehicle control at matched timepoints. The normalized relative protein levels of p-Ser2 were used for a treatment effect comparison by performing an ANOVA using PROC MIXED in SAS. The ANOVA model included treatment, timepoints and their interactions as fixed effects. […]

[4] = system: RNA polymerase II Ser2 phosphorylation (p-Ser2) in SU-DHL-10 cells; test: In vitro washout, p-Ser2 Western blot, SU-DHL-10; type: cell-based, human; details: 1 µmol/L
Protocol: as §1
The levels of p-Ser2, p-Ser5 and total RNA polymerase II, Myc, Mcl-1, cleaved PARP (cPARP), and cleaved Caspase 3 were assessed by Western blotting and quantified near-infrared detection and background corrected quantification of fluorescence intensity on an Odyssey Imaging System with IRDye secondary antibodies (LI-COR Biosciences). For quantification, the protein levels were normalized to GAPDH or HSP90, expressed as a ratio to DMSO or vehicle control at matched timepoints. The normalized relative protein levels of p-Ser2 were used for a treatment effect comparison by performing an ANOVA using PROC MIXED in SAS. The ANOVA model included treatment, timepoints and their interactions as fixed effects. The least square means (LSM), differences between the LSMs and associated P values were generated. The following primary antibodies were used: Rpb1 NTD (D8L4Y) rabbit antibody [Cell Signaling Technology (CST), #14958], anti-RNA polymerase II subunit B1 (phospho CTD Ser-2, clone 3E10) rat antibody (Merck, 04-1571-I), recombinant anti-c-MYC rabbit antibody (Y69; Abcam, #ab32072), MCL1 (D5V5L) rabbit antibody (CST, #39224), cleaved-PARP (Asp214) (E2T4K) mouse antibody (CST, #32563), HSP90 (C45G5) rabbit antibody (CST, #4877), and GAPDH mouse antibody (Zytomed Systems, #ZYT-RGM2-6C5).

COc1cc(F)ccc1-c1cc(Nc2cc(CS(C)(=N)=O)ccn2)ncc1F (stereo not drawn) [enitociclib]
PHF23 fold change ([1]; 250 nmol/L, 4 hours, Padj 1.14 e-12): −12.236 | TP53RK fold change ([1]; 250 nmol/L, 4 hours, Padj 7.76 e-8): −9.992 | BTG1 and PIM3 by RNA-seq (in words) ([1]; 1 µmol/L, 4 hours): statistically significant downregulation | PHF23 and TP53RK by RNA-seq (in words) ([1]; 1 µmol/L, 4 hours): statistically significantly downregulated | MCL1 mRNA by RNA-seq (in words) ([1]; 4 hours treatment, in vitro): downregulation is observed but not statistically significant | MYC mRNA by RNA-seq (in words) ([1]; 4 hours treatment, in vitro): statistically significantly downregulated | ZPF36 by RNA-seq (in words) ([1]; 4 hours treatment, in vitro): significantly downmodulated | MYC extent of downregulation, fold change ([1]; MYC+ DLBCL cell lines, clinically relevant conditions): −17.108 fold change | MCL1 mRNA levels in tumors (in words) [2]: reduced by 4 hours postdose | sustained Myc and Mcl-1 protein depletion for 48 hours (in words) [3]: this was achieved | reduction of p-Ser2 ([4]; 4-hour treatment then washout): 50% | duration of p-Ser2 reduction ([4]; after treatment): up to 24 hours
